The record followed here is patent US5180735A, “Cyclohexanol derivatives, production and use thereof” (Takeda Chemical Industries, Ltd., priority 1989, dated 1993).

The experiment relates to M5076 cells. Briefly: Antitumor test in mice inoculated subcutaneously with M5076 cells (tumor size, T/C). It counts as in vivo, C57BL/6 mice. The note with it: subcutaneous, 10 times in total, tumor size after 13 days; for response vs control in vivo at 30 mg/kg / response vs control in vivo at 20 mg/kg: Mus musculus, M5076, sc, 312 h, read-out: T/C (%) (ratio of tumor size to control group); for response vs control in vivo at 20 mg/kg / T/C (%) (ratio of tumor size to control group): 20 mg/kg. As to the method:
C57BL/6 mice (a group consisting of 6 mice) were inoculated subcutaneously at the dorsolateral area with 2×10^6 M5076 cells, and then a test compound dissolved in a 5% gum arabic physiological saline solution was subcutaneously administered 10 times in total, i.e. 1st, 2nd, 4th, 5th, 6th, 7th, 8th, 9th, 11th and 12th day after the inoculation. After 13 days, the major axis (a) and the minor axis (b) of the tumor tissue were measured to determine the tumor size by the calculation formula of a×b^2 ×1/2. The ratio of the tumor size thus calculated to the tumor size of animals in the control group was shown by T/C (%).

On to `C#CC[S+](C)C[C@@]1(O)CC[C@@H](OC(=O)NC(=O)CCl)[C@@H](OC)[C@@H]1[C@@]1(C)O[C@@H]1CC=C(C)C` (stereo partly shown) [Example 17, 4-O-(Chloroacetylcarbamoyl)-2-(1,2-epoxy-1,5-dimethyl-4-hexenyl)-3-methoxy-1-(2-propinyl)-methylsulfoniomethyl-1,4-cyclohexanediol bromide], for which the response vs control in vivo at 30 mg/kg was determined as 21%. As to `CO[C@@H]1[C@H](OC(=O)NC(=O)CCl)CC[C@](O)(C[S+](C)Cc2ccccc2)[C@H]1[C@@]1(C)O[C@@H]1CC=C(C)C` (stereo partly drawn) [Example 76, 1-Benzylmethylsulfoniomethyl-4-chloroacetylcarbamoyloxy-2-(1,2-epoxy-1,5-dimethyl-4-hexenyl)-3-methoxycyclohexanol hydrogen L-tartrate], the response vs control in vivo at 20 mg/kg amounted to 29%. As for `CO[C@@H]1[C@H](OC(=O)NC(=O)CCl)CC[C@](O)(C[S+](C)Cc2ccc(Br)cc2)[C@H]1[C@@]1(C)O[C@@H]1CC=C(C)C` (stereo partly shown) [Example 60, 1-(4-Bromobenzyl)methylsulfoniomethyl-4-(N-chloroacetylcarbamoyloxy)-2-(1,2-epoxy-1,5-dimethyl-4-hexenyl)-3-methoxycyclohexanol bromide], the response vs control in vivo at 20 mg/kg was found to be 21%. Take `CO[C@@H]1[C@H](OC(=O)NC(=O)CCl)CC[C@](O)(C[S+](C)Cc2cccc(Br)c2)[C@H]1[C@@]1(C)O[C@@H]1CC=C(C)C` (single isomer, unassigned) [Example 65B, 1-(3-bromobenzyl)methylsulfoniomethyl-4-(N-chloroacetylcarbamoyloxy)-2-(1,2-epoxy-1,5-dimethyl-4-hexenyl)-3-methoxycyclohexanol bromide]: the “T/C (%) (ratio of tumor size to control group)” value turned out to be 37%. For the compound `CO[C@@H]1[C@H](OC(=O)NC(=O)CCl)CC[C@](O)(C[S+](C)Cc2ccc(Cl)cc2)[C@H]1[C@@]1(C)O[C@@H]1CC=C(C)C` (stereo partly shown) [Example 61, 4-(N-Chloroacetylcarbamoyloxy)-1-(4-chlorobenzyl)methylsulfoniomethyl-2-(1,2-epoxy-1,5-dimethyl-4-hexenyl)-3-methoxycyclohexanol bromide], the response vs control in vivo at 20 mg/kg was determined as 27%. With `CO[C@@H]1[C@H](OC(=O)NC(=O)CCl)CC[C@](O)(C[S+]2Cc3ccccc3C2)[C@H]1[C@@]1(C)O[C@@H]1CC=C(C)C` [Example 82, 4-(N-Chloroacetylcarbamoyloxy)-2-(1,2-epoxy-1,5-dimethyl-4-hexenyl)-1-(1,3-dihydrobenzo[c]thiophen-2-ylio)methyl-3-methoxycyclohexanol chloride], the response vs control in vivo at 20 mg/kg is 9%. As to `CO[C@@H]1[C@H](OC(=O)NC(=O)CCl)CC[C@](O)(C[S+](C)Cc2cccc(Br)c2)[C@H]1[C@@]1(C)O[C@@H]1CC=C(C)C` (stereo partly shown) [Example 64, 1-(3-Bromobenzyl)methylsulfoniomethyl-4-(N-chloroacetylcarbamoyloxy)-2-(1,2-epoxy-1,5-dimethyl-4-hexenyl)-3-methoxycyclohexanol bromide], the response vs control in vivo at 20 mg/kg turned out to be 24%. As to “4-(N'-chloroacetylureido)-2-(1,2-epoxy-1,5-dimethyl-4-hexenyl)-1-(1,3-dihydrobenzo[c]thiophen-2-ylio)methyl-3-methoxycyclohexanol chloride [Example 100]”, the “T/C (%) (ratio of tumor size to control group)” value worked out at 22%. For `CO[C@@H]1[C@H](OC(=O)NC(=O)CCl)CC[C@](O)(C[S+](C)Cc2ccccc2)[C@H]1[C@@]1(C)O[C@@H]1CC=C(C)C` (stereo partly shown) [Example 16, 4-O-(N-chloroacetylcarbamoyl)-2-(1,2-epoxy-1,5-dimethyl-4-hexenyl)-3-methoxy-1-benzylmethylsulfoniomethyl-1,4-cyclohexanediol bromide], the response vs control in vivo at 30 mg/kg is 20%. With `CO[C@@H]1[C@H](OC(=O)NC(=O)CCl)CC[C@](O)(C[S+](C)Cc2ccc(F)cc2)[C@H]1[C@@]1(C)O[C@@H]1CC=C(C)C` (stereo partly shown) [Example 62, 4-(N-Chloroacetylcarbamoyloxy)-2-(1,2-epoxy-1,5-dimethyl-4-hexenyl)-1-(4-fluorobenzyl)methylsulfoniomethyl-3-methoxycyclohexanol bromide], the response vs control in vivo at 20 mg/kg is 29%.
